pIC50: −log10 of the molar value.
Columns and labels:
recombinant human HDAC6 = recombinant human HDAC6 (Homo sapiens (Human), UniProt Q9UBN7); assay: Enzymatic screening, HDAC6 inhibition (fluorogenic FdL_G substrate); format: biochemical
Outline: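 Enzyme was preincubated with compound (8 doses, triplicate, 1% DMSO) in 25 mM Tris-HCl pH 8, 130 mM NaCl, 0.05% Tween-20, 10% glycerol, with BSA. A FLUOR DE LYS-Green substrate was then added, and fluorescence was read after developer plus 2 μM TSA.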

recombinant human HDAC1 = recombinant human HDAC1 (Homo sapiens (Human), UniProt Q13547); assay: Enzymatic screening, HDAC1 inhibition (fluorogenic FdL_G substrate); format: biochemical
Outline: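 Recombinant human HDAC1 inhibition was measured fluorometrically using the FLUOR DE LYS-Green (FdL_G) substrate. Compounds at 8 doses (1% DMSO final) in Tris-HCl pH 8 buffer with NaCl, Tween-20 and glycerol were preincubated in triplicate with enzyme and 1 mg/mL BSA, then given substrate. Developer I plus 2 μM TSA was added, and fluorescence read after 25 minutes in the dark.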

[1] = tested on: α-tubulin acetylation in 697 cell line; assay: In vitro α-tubulin acetylation in 697 cell line (ELISA); format: cell-based; conditions: 16 hours, read-out: fold increase @ 1 uM TubAc (ratio of acetylated tubulin and total tubulin towards control)
Procedure: The in vitro α-tubulin acetylation determination was evaluated on B 697 promyelocytic cell line.
The test molecules were diluted from 20 mM stock solution in DMSO with RPMI 10% FCS+0.01% DMSO medium at 20× concentration compared to the final concentration, added to the cells (15×10^6 cells in a total volume of 30 mL in RPMI medium 10% FCS+0.01% DMSO) to obtain the final concentrations of 1000, 333, 111, 37 nM and incubated at 37° C., 5% CO2 for 16 hours.
At the end of the incubation period, 5×10^6 cells were taken from each sample, centrifuged for 5 minutes at 1100 rpm and washed in 0.9% NaCl at 4° C. The resulting pellet was lysed by treating at 4° C. for 30 minutes with 150 μl of Complete Lysis-M buffer containing protease inhibitors (Complete Lysis-M Roche+Complete Tablets, Mini Easypack, cat: 4719956001) and phosphatase inhibitor cocktails (PhosStop Easypack, Roche, cat: 4906837001), then centrifuged 10 minutes at 14,000 rpm (20817×g). 0.3 μg of supernatant (total protein extract) were diluted in 100 μl of 1×PBS and immobilized in Maxisorp F96 NUN-IMMUNO Plate (Nunc MaxiSorp flat-bottom, Nunc, cat: 442404) at room temperature overnight. Plates were washed twice with Wash Buffer (PBS1×+0.005% tween 20) and saturated for 1 hour at room temperature with 300 μL of 1×PBS containing 10% FCS. After washing twice with Wash Buffer, the plates were incubated for two hours at room temperature in the presence of anti-acetylated-α-tubulin antibody (Monoclonal Anti-acetylated-tubulin clone 6-11B-1, mouse ascites fluid, Sigma, cat: T6793), 100 μl/well diluted 1:1000 in 1×PBS containing 10% FCS) or with total anti-α-tubulin antibody (Monoclonal Anti-alpha-tubulin produced in mouse, Sigma, cat: T6074). Following washing of the pates 5 times with Wash Buffer the secondary antibody conjugated with the enzyme HRP (Goat anti-Mouse IgG, IgM, IgA (H+L), Thermo Fisher Scientific, cat: A10668), diluted 1:1000 in 1×PBS+10% FBS was added at the volume of 100 μl/well.
After washing 4 times, 100 μl/well of TMB substrate kit was added for 10 minutes at room temperature in the dark. The reaction was stopped by adding 50 μl of 2N H2SO4. The plates were read at Multiskan Spectrum spectrophotometer at a wavelength of 450 nm.
The degree of acetylation was calculated by dividing the absorbance obtained for acetylated α-tubulin by the absorbance of total tubulin.
The results of tubulin acetylation, expressed as fold increase of ratio of acetylated α-tubulin/total α-tubulin, of each sample relative to the control sample (untreated) are summarized in table 6.

Stability in rat plasma = conditions: after 4 hours, 37° C.
Procedure: (§1) In order to evaluate the stability to circulating enzymes, test compounds were incubated in human and rat plasma at 37° C. in a thermostated oscillating bath. Each test compound was incubated at μM concentration (50 μM when the samples were analysed by UV/HPLC, 1 or 2 μM when the samples were analysed by LC-MS/MS) for 0, 15, 30 minutes and 1, 2 and 4 hours. The reaction was stopped placing samples on ice bath and adding acidified acetonitrile. After centrifugation (10 minutes at 14000 rpm) an aliquot of the supernatant was diluted with water, filtered with 0.45 μm regenerated cellulose syringe filters and injected in HPLC-UV or in LC-MS/MS. The percentage of the remaining amount at the various incubation times with respect to the initial amount were calculated. The half-life in plasma was also calculated.

[2] = Stability in human plasma; conditions: after 4 hours, 37° C.
Procedure: as §1

[3] = Stability to Phase I metabolism in rat S9 liver fraction; conditions: after 90 minutes, 37° C.
[4] = Stability to Phase I metabolism in human S9 liver fraction; conditions: after 90 minutes, 37° C.

Chain of recombinant human HDAC6 (Q9UBN7 whole entry): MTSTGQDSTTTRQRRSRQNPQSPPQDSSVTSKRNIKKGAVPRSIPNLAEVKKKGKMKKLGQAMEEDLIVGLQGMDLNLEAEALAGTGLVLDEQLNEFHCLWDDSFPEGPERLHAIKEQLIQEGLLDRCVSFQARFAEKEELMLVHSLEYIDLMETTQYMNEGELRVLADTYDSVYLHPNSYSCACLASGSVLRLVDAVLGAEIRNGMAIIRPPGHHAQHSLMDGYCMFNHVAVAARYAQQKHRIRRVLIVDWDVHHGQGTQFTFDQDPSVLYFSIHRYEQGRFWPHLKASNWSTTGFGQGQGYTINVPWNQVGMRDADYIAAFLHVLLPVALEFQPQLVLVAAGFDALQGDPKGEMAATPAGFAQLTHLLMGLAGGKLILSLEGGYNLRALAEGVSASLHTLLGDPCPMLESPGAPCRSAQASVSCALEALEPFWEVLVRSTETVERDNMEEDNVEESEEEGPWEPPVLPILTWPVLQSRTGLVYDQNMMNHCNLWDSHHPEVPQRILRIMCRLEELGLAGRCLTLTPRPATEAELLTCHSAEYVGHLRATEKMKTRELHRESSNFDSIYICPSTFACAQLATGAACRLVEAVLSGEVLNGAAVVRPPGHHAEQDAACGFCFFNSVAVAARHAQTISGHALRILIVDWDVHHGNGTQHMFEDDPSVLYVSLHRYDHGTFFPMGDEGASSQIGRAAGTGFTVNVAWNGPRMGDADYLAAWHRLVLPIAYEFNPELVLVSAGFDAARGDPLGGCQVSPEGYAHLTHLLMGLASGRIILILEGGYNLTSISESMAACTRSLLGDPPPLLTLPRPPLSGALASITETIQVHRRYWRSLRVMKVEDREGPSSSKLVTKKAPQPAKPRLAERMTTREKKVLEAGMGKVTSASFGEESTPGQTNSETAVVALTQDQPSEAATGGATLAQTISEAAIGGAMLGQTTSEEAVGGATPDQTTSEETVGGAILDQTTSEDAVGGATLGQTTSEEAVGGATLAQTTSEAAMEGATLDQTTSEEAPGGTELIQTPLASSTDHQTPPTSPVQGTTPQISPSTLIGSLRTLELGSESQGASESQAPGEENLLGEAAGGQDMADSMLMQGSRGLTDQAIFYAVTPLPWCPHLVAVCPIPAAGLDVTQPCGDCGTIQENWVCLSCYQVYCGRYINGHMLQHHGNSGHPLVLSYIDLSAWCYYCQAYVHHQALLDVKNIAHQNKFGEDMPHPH
Chain of recombinant human HDAC1 (Q13547 whole entry): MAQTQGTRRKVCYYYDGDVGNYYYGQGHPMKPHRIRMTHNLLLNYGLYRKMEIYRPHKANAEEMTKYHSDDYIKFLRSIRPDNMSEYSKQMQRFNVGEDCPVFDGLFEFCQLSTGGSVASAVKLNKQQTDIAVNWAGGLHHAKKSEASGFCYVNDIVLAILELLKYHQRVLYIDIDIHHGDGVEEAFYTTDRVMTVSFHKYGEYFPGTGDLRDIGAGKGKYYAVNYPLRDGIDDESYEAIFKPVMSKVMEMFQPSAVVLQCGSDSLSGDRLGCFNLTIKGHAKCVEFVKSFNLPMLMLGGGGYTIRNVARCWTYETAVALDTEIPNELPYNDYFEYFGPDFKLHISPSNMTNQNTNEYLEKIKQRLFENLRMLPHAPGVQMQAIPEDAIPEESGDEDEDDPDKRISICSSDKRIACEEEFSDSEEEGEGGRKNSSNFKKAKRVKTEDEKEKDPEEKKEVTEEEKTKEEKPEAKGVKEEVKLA

SMILES	pIC50 (recombinant human HDAC6)	pIC50 (recombinant human HDAC1)	fold induction at 1 µM [1]	residual percentage in RAT PLASMA (Stability in rat plasma) [%]	residual percentage in HUMAN PLASMA [2] [%]	residual percentage in RAT S9 FRACTION [3] [%]	residual percentage in HUMAN S9 FRACTION [4] [%]
C[C@H](c1ccc(-c2nnc(C(F)F)o2)cn1)n1cc(-c2ccc(N)nc2)nn1 [Compd. 32, (R)-5-(1-(1-(5-(5-(difluoromethyl)-1,3,4-oxadiazol-2-yl)pyridin-2-yl)ethyl)-1H-1,2,3-triazol-4-yl)pyridin-2-amine]	7.85	< 3.70	31	67	97	91	97
CN1CCN(C(=O)Nc2cccc(-c3cn(Cc4ccc(-c5nnc(C(F)F)o5)cn4)nn3)c2)CC1 [Compd. 51, N-(3-(1-((5-(5-(difluoromethyl)-1,3,4-oxadiazol-2-yl)pyridin-2-yl)methyl)-1H-1,2,3-triazol-4-yl)phenyl)-4-methylpiperazine-1-carboxamide]	7.66	< 3.70	26	79	90	62	90
Nc1nc2ccc(-c3cn(Cc4ccc(-c5nnc(C(F)F)o5)cc4)nn3)cc2s1 [compound 14, 6-(1-(4-(5-(difluoromethyl)-1,3,4-oxadiazol-2-yl)benzyl)-1H-1,2,3-triazol-4-yl)benzo[d]thiazol-2-amine]			19	83	72	95	93
Nc1ccc(-c2cn(Cc3ccc(-c4nnc(C(F)F)o4)c(F)c3)nn2)cn1 [compound 15, 5-(1-(4-(5-(difluoromethyl)-1,3,4-oxadiazol-2-yl)-3-fluorobenzyl)-1H-1,2,3-triazol-4-yl)pyridin-2-amine]			16	72	81	79	91
O=C1NCc2ccc(-c3cn(Cc4ccc(-c5nnc(C(F)F)o5)cc4)nn3)cc21 [compound 109, 6-(1-(4-(5-(difluoromethyl)-1,3,4-oxadiazol-2-yl)benzyl)-1H-1,2,3-triazol-4-yl)isoindolin-1-one]	7.38	< 3.70		78	89	87	82
NC(=O)c1cccc(-c2nnn(Cc3ccc(-c4nnc(C(F)F)o4)cn3)n2)c1 [compound 29, 3-(2-((5-(5-(difluoromethyl)-1,3,4-oxadiazol-2-yl)pyridin-2-yl)methyl)-2H-tetrazol-5-yl)benzamide]			15				
O=C(Nc1ccc(-c2nnc(Cc3ccc(-c4nnc(C(F)F)o4)cn3)s2)cn1)C(F)F [Compd. 102, N-(5-(5-((5-(5-(difluoromethyl)-1,3,4-oxadiazol-2-yl)pyridin-2-yl)methyl)-1,3,4-thiadiazol-2-yl)pyridin-2-yl)-2,2-difluoroacetamide]	7.41	< 3.70		90	92	56	82
CC(c1ccc(-c2nnc(C(F)F)o2)cn1)n1cc(-c2ccc(N)nc2)nn1 (stereo not shown) [Compd. 59, 5-(1-(1-(5-(5-(difluoromethyl)-1,3,4-oxadiazol-2-yl)pyridin-2-yl)ethyl)-1H-1,2,3-triazol-4-yl)pyridin-2-amine]	7.62	< 3.70		83	87	97	98
COc1ccc(-c2nnn(Cc3ccc(-c4nnc(C(F)F)o4)cc3)n2)cc1OC [compound 128, 2-(difluoromethyl)-5-(4-((5-(3,4-dimethoxyphenyl)-2H-tetrazol-2-yl)methyl)phenyl)-1,3,4-oxadiazole]	7.31	< 3.70		83	96	13	30
Cc1ncccc1-c1cn(Cc2c(F)cc(-c3nnc(C(F)F)o3)cc2F)nn1 [compound 105, 2-(3,5-difluoro-4-((4-(2-methylpyridin-3-yl)-1H-1,2,3-triazol-1-yl)methyl)phenyl)-5-(difluoromethyl)-1,3,4-oxadiazole]	7.39	< 3.70		81	84	71	99
NC(=O)c1cccc(-c2nnn(Cc3ccc(-c4nnc(C(F)F)o4)cc3F)n2)c1 [compound 50, 3-(2-(4-(5-(difluoromethyl)-1,3,4-oxadiazol-2-yl)-2-fluorobenzyl)-2H-tetrazol-5-yl)benzamide]	7.66	< 3.70		87	89	66	95
CS(=O)(=O)NCCC(c1ccc(-c2nnc(C(F)F)o2)cc1)c1cn(-c2ccc(N)nc2)nn1 (stereo not shown) [Compd. 62, N-{3-[1-(6-aminopyridin-3-yl)-1H-1,2,3-triazol-4-yl]-3-{4-[5-(difluoromethyl)-1,3,4-oxadiazol-2-yl]phenyl}propyl}methanesulfonamide]	7.57	< 3.70		69	88	86	95
FC(F)c1nnc(-c2ccc(Cn3nnc(-c4cccc(-c5nc6c([nH]5)CCNC6)c4)n3)cc2)o1 [compound 108, 2-(difluoromethyl)-5-(4-((5-(3-(4,5,6,7-tetrahydro-1H-imidazo[4,5-c]pyridin-2-yl)phenyl)-2H-tetrazol-2-yl)methyl)phenyl)-1,3,4-oxadiazole]	7.35	4.18		77	78	68	96
FC(F)c1nnc(-c2ccc(Cn3nnnc3-c3csc4ccccc34)cc2)o1 [compound 288, 2-(4-((5-(benzo[b]thiophen-3-yl)-1H-tetrazol-1-yl)methyl)phenyl)-5-(difluoromethyl)-1,3,4-oxadiazole]	6.45	< 3.70		86	78	9	54
Nc1ncc(-c2nnn(Cc3ccc(-c4nnc(C(F)F)o4)cc3)n2)cn1 [compound 79, 5-(2-(4-(5-(difluoromethyl)-1,3,4-oxadiazol-2-yl)benzyl)-2H-tetrazol-5-yl)pyrimidin-2-amine]	7.48	< 3.70		77	85	78	96
